From patent publication US11166942B2 (PRAXIS BIOTECH LLC, priority 2018, dated 2021)
Where two headings read alike, the source gives them in different places. Each block holds one compound with its values, some of them ahead of it.

What was measured:
[1] = test system: ATF4; experiment: ATF4 expression inhibition assay (ATF4 5'UTR luciferase reporter, Tg-stressed HEK293T cells); format: cell-based, human; settings: for inhibition at 0.1 µM: read-out: % ATF4 inhibition at 100 nM; for IC50: read-out: ATF4 inhbition IC50; for inhibition at 1 µM: read-out: % ATF4 inhibition at 1 μM
Method: The ATF4 reporter was prepared by fusing the human full length 5′UTR of ATF4 (NCBI Accession No. BC022088.2) upstream of the firefly luciferase coding sequence lacking the initiator methionine. The fused sequence was cloned into pLenti-EF1a-C-Myc-DDK-IRES-Puro cloning vector (Origen #PS100085) using standard methods. Virus production was carried out by using Lenti-X™ Packaging Single Shots Protocol (Clonetech #631276). Viral particles were used to transduce HEK293T cells (ATCC #CRL-3216, ATCC Manassas, Va.), which were subsequently selected with puromycin to generate stable cell line. Cells were maintained at 37° C. and 5% CO2 in DMEM-F12 (Hyclone #SH30023.02) supplemented with 10% heat-inactivated fetal bovine serum (Gibco #16000-044), 2 mM L-glutamine (Gibco #25030-081), 100 U/ml penicillin, and 100 μg/ml streptomycin (Gibco #15140-122).
HEK293T cells carrying the ATF4 luciferase reporter were plated on 96-well plates (Nunc) at 10,000 cells per well. Cells were treated two days after seeding with 100 nM thapsigargin (Tg) (Sigma-Aldrich #T9033) in the presence of 100 nM or 1 μM. For the assessment of the half-maximal inhibitory concentration (IC50) for selected compounds, dose-response assays were performed. Compounds were serially diluted using DMSO ranging from 0.1 nM to 1 μM. Cells without treatment or cells treated with Tg alone were used as controls. Assay plates containing cells were incubated for 3 hours at 37° C.
Luciferase reactions were performed using Luciferase Assay System (Promega #E1501) as specified by the manufacturer. Luminescence was read with an integration time of 1 s and a gain of 110 using a Cytation-5 multi-mode microplate reader (BioTek). Relative luminescence units were normalized to Tg treatment (0% inhibition) and untreated cells (100% inhibition) and the percentage of ATF4 inhibition was calculated.
Percentages of ATF4 inhibition after induction with Tg in the presence of 100 nM or 1 μM of certain test compounds are shown in Table 2. Also shown in Table 2 is the calculated IC50 for certain test compounds. […] Accordingly, inhibition of ATF4 expression as a result of the test compound indicates suppression of the ISR pathway.

[2] = test system: Chinese hamster ovary (CHO) cells; experiment: Protein translation assay (puromycin labelling, CHO cells); format: cell-based; settings: media alone = 100%; for % Recovery of protein expression (100 nM test compound): 100 nM compound; for activity at 1 µM: Cricetulus griseus, CHO
Method: Chinese hamster ovary (CHO) cells were maintained at 37° C. and 5% CO2 in Dulbecco's Modified Eagle's Media (DMEM) supplemented with 10% fetal bovine serum, 2 mM L-glutamine, 100 U/ml penicillin, and 100 μg/ml streptomycin. After reaching 80% of confluence, cells were detached and seeded on 6 well plates in complete media, allowed to recover overnight and treated for 2 hours with 1 μM of the test compound (to assess protein synthesis levels in unstressed condition), or for 1 hour with 100 nM or 1 μM of the test compound and then co-treated with 300 nM Tg and 100 nM or 1 μM of the test compound (to assess the recovery of protein synthesis in a stressed condition). Cells treated with Tg alone were used as controls.
After the 2 hours treatments, media were replaced by adding 10 μg/ml puromycin (Sigma Aldrich #P8833) in complete media for 30 min. Media were removed and cells were lysed with SDS-PAGE lysis buffer. Lysates were transferred to 1.5 ml tubes and sonicated for 3 min and total protein amount were quantified using BCA Protein Assay Kit (Pierce). Equal amount of protein (30 μg) was loaded on SDS-PAGE gels. Proteins were transferred onto 0.2 μm PVDF membranes (BioRad) and probed with primary antibodies diluted in Tris-buffered saline supplemented with 0.1% Tween 20 (Merck #S6996184 505) and 3% bovine serum albumin (Rockland #BSA-50).
Puromycin (12D10) (Merck #MABE343) and β-actin (Sigma Aldrich #A5441) antibodies were used as primary antibody. A HRP-conjugated secondary antibody (Rockland) was employed to detect immune-reactive bands using enhanced chemiluminescence (ECL Western Blotting Substrate, Pierce). Quantification of protein bands was done by densitometry using ImageJ software.
Percent increase of protein synthesis in unstressed cells (without Tg treatment) in the presence of media alone or certain test compounds is shown in Table 3 The percentage levels were normalized to the media alone condition, which correspond to 100% protein synthesis.
Percent recovery of protein synthesis in stressed cells (with Tg treatment) due to the test compounds at 100 nM or 1 μM is also shown in Table 3. The levels were normalized to the media alone and to Tg alone conditions, which correspond to 100% and 0% respectively.

[3] = Homo sapiens, HEK-293T, 3 h, 100 nM test compound, 100 nM thapsigargin, 3 hours, HEK293T ATF4 luciferase reporter
[4] = Homo sapiens, HEK-293T, 3 h, 100 nM thapsigargin, 3 hours, HEK293T ATF4 luciferase reporter
[5] = Homo sapiens, HEK-293T, 3 h, 1 μM test compound, 100 nM thapsigargin, 3 hours, HEK293T ATF4 luciferase reporter
[6] = CHO cells stressed with 300 nM Tg, Tg alone = 0%
[7] = 2 h, unstressed CHO cells, 1 μM, 2 hours, read-out: % Protein synthesis in unstressed cells (1 μM test compound)
[8] = CHO cells stressed with 300 nM Tg, 1 μM compound, Tg alone = 0%, read-out: % Recovery of protein expression (1 μM test compound)
[9] = 100 nM thapsigargin, 3 hours, HEK293T ATF4 luciferase reporter
[10] = unstressed CHO cells, 1 μM, 2 hours

Structure (SMILES): O=C(COc1ccc(Cl)c(F)c1)NC1CCN(NC(=O)c2ccc3cc(Cl)ccc3n2)CC1 [Compound 1, 6-chloro-N-(4-(2-(4-chloro-3-fluorophenoxy)acetamido)piperidin-1-yl)quinoline-2-carboxamide]
- inhibition at 0.1 µM [1, 3]: 93.7%
- IC50 [1, 4]: 3.6 nM
- inhibition at 1 µM [1, 5]: 97.9%
- % Recovery of protein expression (100 nM test compound) [2, 6]: 88.6%
- activity at 1 µM [2, 7]: 112%
- activity at 1 µM [2, 8]: 218%

Structure (SMILES): O=C(NN1CCC(NCC(O)COc2ccc(Cl)c(F)c2)CC1)c1cc2cc(Cl)ccc2o1 (stereo not drawn) [Compound 21, 5-chloro-N-(4-((3-(4-chloro-3-fluorophenoxy)-2-hydroxypropyl)amino)piperidin-1-yl)benzofuran-2-carboxamide]
- inhibition at 0.1 µM ([1]; Homo sapiens, HEK-293T, 3 h): 68.6%
- inhibition at 1 µM ([1]; Homo sapiens, HEK-293T, 3 h): 86.9%
- IC50 ([1]; Homo sapiens, HEK-293T, 3 h): 61.9 nM
- activity at 1 µM [2, 7]: 129%
- activity at 1 µM [2, 8]: 236%

Structure (SMILES): O=C(COc1ccc(Cl)cc1)NC1CCN(NC(=O)COc2ccc(Cl)cc2)CC1 [Compound 45, N,N′-(piperidine-1,4-diyl)bis(2-(4-chlorophenoxy)acetamide)]
- inhibition at 0.1 µM ([1]; Homo sapiens, HEK-293T, 3 h): 92.7%
- inhibition at 1 µM ([1]; Homo sapiens, HEK-293T, 3 h): 92.4%
- IC50 ([1]; Homo sapiens, HEK-293T, 3 h): 2.6 nM
- activity at 1 µM [2, 7]: 114%
- activity at 1 µM [2, 8]: 82.3%

Structure (SMILES): O=C(NN1CCN(C[C@@H](O)COc2ccc(Cl)c(F)c2)CC1)c1cc2cc(Cl)ccc2o1 [Compound 48, (R)-5-chloro-N-(4-(3-(4-chloro-3-fluorophenoxy)-2-hydroxypropyl)piperazin-1-yl)benzofuran-2-carboxamide]
- inhibition at 0.1 µM [1, 3]: 96.5%
- IC50 [1, 4]: 3.36 nM
- inhibition at 1 µM [1, 5]: 97.4%
- activity at 1 µM [2, 7]: 85.3%
- activity at 1 µM [2, 8]: 76.2%

Structure (SMILES): O=C(NN1CCN(C[C@H](O)COc2ccc(Cl)c(F)c2)CC1)c1ccc2cc(Cl)ccc2n1 [Compound 59, (S)-6-chloro-N-(4-(3-(4-chloro-3-fluorophenoxy)-2-hydroxypropyl)piperazin-1-yl)quinoline-2-carboxamide]
- inhibition at 0.1 µM [1, 3]: 38.8%
- IC50 [1, 4]: 570 nM
- inhibition at 1 µM [1, 5]: 66%
- activity at 1 µM [2, 7]: 180%
- activity at 1 µM [2, 8]: 98.7%

Structure (SMILES): O=C(NN1CCC(NC[C@H](O)COc2ccc(Cl)c(F)c2)CC1)c1cc2cc(Cl)ccc2o1 [Compound 55, (S)-5-chloro-N-(4-((3-(4-chloro-3-fluorophenoxy)-2-hydroxypropyl)amino)piperidin-1-yl)benzofuran-2-carboxamide]
- inhibition at 0.1 µM ([1]; Homo sapiens, HEK-293T, 3 h): 58.1%
- inhibition at 1 µM ([1]; Homo sapiens, HEK-293T, 3 h): 80.5%
- IC50 ([1]; Homo sapiens, HEK-293T, 3 h): 102 nM
- activity at 1 µM [2, 7]: 110%
- activity at 1 µM [2, 8]: 49.6%

Structure (SMILES): O=C(NN1CCC(NC[C@@H](O)COc2ccc(Cl)c(F)c2)CC1)c1cc2cc(Cl)ccc2o1 [Compound 54]
- inhibition at 0.1 µM ([1]; Homo sapiens, HEK-293T, 3 h): 87.2%
- inhibition at 1 µM ([1]; Homo sapiens, HEK-293T, 3 h): 97.2%
- IC50 ([1]; Homo sapiens, HEK-293T, 3 h): 1.6 nM
- activity at 1 µM [2, 7]: 99.7%
- activity at 1 µM [2, 8]: 69.9%

Structure (SMILES): O=C(COc1ccc(Cl)c(F)c1)NN1CCC(NC(=O)c2cc3cc(Cl)ccc3o2)CC1 [Compound 5, 5-chloro-N-(1-(2-(4-chloro-3-fluorophenoxy)acetamido)piperidin-4-yl)benzofuran-2-carboxamide]
- inhibition at 0.1 µM [1, 3]: 85.7%
- IC50 [1, 4]: 18.8 nM
- inhibition at 1 µM [1, 5]: 93.7%
- % Recovery of protein expression (100 nM test compound) [2, 6]: −7.1%
- activity at 1 µM [2, 7]: 135%
- activity at 1 µM [2, 8]: 110%

- IC50 [1, 4]: > 1000 nM
Structure (SMILES): N#Cc1ccc(C(=O)NN2CCN(C[C@@H](O)COc3ccc(Cl)c(F)c3)CC2)nc1 [Compound 67, (R)-N-(4-(3-(4-chloro-3-fluorophenoxy)-2-hydroxypropyl)piperazin-1-yl)-5-cyanopicolinamide]
- inhibition at 0.1 µM [1, 3]: 3.6%
- inhibition at 1 µM [1, 5]: 27.8%
- activity at 1 µM [2, 7]: 80%
- activity at 1 µM [2, 8]: 27.6%

Structure (SMILES): O=C(COc1ccc(Cl)c(F)c1)NC1CCN(NC(=O)c2cc3cc(Cl)ccc3o2)CC1 [Compound 2, 5-chloro-N-(4-(2-(4-chloro-3-fluorophenoxy)acetamido)piperidin-1-yl)benzofuran-2-carboxamide]
- inhibition at 0.1 µM [1, 3]: 87.1%
- IC50 [1, 4]: 18.4 nM
- inhibition at 1 µM [1, 5]: 97.6%
- % Recovery of protein expression (100 nM test compound) [2, 6]: 40.2%
- activity at 1 µM [2, 7]: 87.5%
- activity at 1 µM [2, 8]: 123%

Structure (SMILES): O=C(NN1CCN(C[C@@H](O)COc2ccc(Cl)c(F)c2)CC1)c1ccc(Cl)cn1 [Compound 64, (R)-5-chloro-N-(4-(3-(4-chloro-3-fluorophenoxy)-2-hydroxypropyl)piperazin-1-yl)picolinamide]
- inhibition at 0.1 µM [1, 3]: 20%
- inhibition at 1 µM [1, 5]: 56.6%
- activity at 1 µM [2, 7]: 109%
- activity at 1 µM [2, 8]: 34.7%

Structure (SMILES): O=C(COc1ccc(Cl)c(F)c1)NC1CCN(NC(=O)C2CNc3cc(Cl)ccc3O2)CC1 (stereo not drawn) [Compound 31, 6-chloro-N-(4-(2-(4-chloro-3-fluorophenoxy)acetamido)piperidin-1-yl)-3,4-dihydro-2H-benzo[b][1,4]oxazine-2-carboxamide]
- IC50 [1, 9]: 4.16 nM
- inhibition at 0.1 µM [1, 3]: 94.8%
- inhibition at 1 µM [1, 5]: 92.7%
- % Protein synthesis in unstressed cells (1 μM test compound) [2, 10]: 155.4%

Structure (SMILES): O=C(COc1ccc(Cl)c(F)c1)NN1CCN(CCCOc2ccc(Cl)c(F)c2)CC1 [Compound 16, 2-(4-chloro-3-fluorophenoxy)-N-(4-(3-(4-chloro-3-fluorophenoxy)propyl)piperazin-1-yl)acetamide]
- inhibition at 0.1 µM ([1]; Homo sapiens, HEK-293T, 3 h): 46.3%
- inhibition at 1 µM ([1]; Homo sapiens, HEK-293T, 3 h): 91.6%
- IC50 ([1]; Homo sapiens, HEK-293T, 3 h): 125 nM
- activity at 1 µM [2, 7]: 66.1%
- activity at 1 µM [2, 8]: -5.5%

Structure (SMILES): O=C(NN1CCN(C[C@@H](O)COc2ccc(Cl)c(F)c2)CC1)c1ccc2cc(Cl)ccc2c1 [Compound 60, (R)-6-chloro-N-(4-(3-(4-chloro-3-fluorophenoxy)-2-hydroxypropyl)piperazin-1-yl)-2-naphthamide]
- inhibition at 0.1 µM [1, 3]: 92.6%
- IC50 [1, 4]: 1.5 nM
- inhibition at 1 µM [1, 5]: 94.6%
- activity at 1 µM [2, 7]: 140%
- activity at 1 µM [2, 8]: 126%

Structure (SMILES): O=C(COc1ccc(Cl)c(F)c1)NC1CCN(NC(=O)[C@@H]2CNc3cc(Cl)ccc3O2)CC1 [Compound 47, (S)-6-chloro-N-(4-(2-(4-chloro-3-fluorophenoxy)acetamido)piperidin-1-yl)-3,4-dihydro-2H-benzo[b][1,4]oxazine-2-carboxamide]
- % ATF4 inhibition at 100 nM ([1]; 100 nM test compound, 100 nM thapsigargin, 3 hours, HEK293T ATF4 luciferase reporter): 98.2%
- IC50 [1, 9]: 1.98 nM
- % ATF4 inhibition at 1 μM ([1]; 1 μM test compound, 100 nM thapsigargin, 3 hours, HEK293T ATF4 luciferase reporter): 99.0%
- % Protein synthesis in unstressed cells (1 μM test compound) [2, 10]: 89.4%
